Results taken from PMC7253177, “Gain of channel function and modified gating properties in TRPM3 mutants causing intellectual disability and epilepsy” (eLife, 2020).

Target: T1, WT human TRPM3 (Homo sapiens, UniProt Q9HCF6)
T1 construct: expressed in transfected cells; host or cells: HEK293T
T1 sequence (Q9HCF6 1-1325 isoform Q9HCF6-10): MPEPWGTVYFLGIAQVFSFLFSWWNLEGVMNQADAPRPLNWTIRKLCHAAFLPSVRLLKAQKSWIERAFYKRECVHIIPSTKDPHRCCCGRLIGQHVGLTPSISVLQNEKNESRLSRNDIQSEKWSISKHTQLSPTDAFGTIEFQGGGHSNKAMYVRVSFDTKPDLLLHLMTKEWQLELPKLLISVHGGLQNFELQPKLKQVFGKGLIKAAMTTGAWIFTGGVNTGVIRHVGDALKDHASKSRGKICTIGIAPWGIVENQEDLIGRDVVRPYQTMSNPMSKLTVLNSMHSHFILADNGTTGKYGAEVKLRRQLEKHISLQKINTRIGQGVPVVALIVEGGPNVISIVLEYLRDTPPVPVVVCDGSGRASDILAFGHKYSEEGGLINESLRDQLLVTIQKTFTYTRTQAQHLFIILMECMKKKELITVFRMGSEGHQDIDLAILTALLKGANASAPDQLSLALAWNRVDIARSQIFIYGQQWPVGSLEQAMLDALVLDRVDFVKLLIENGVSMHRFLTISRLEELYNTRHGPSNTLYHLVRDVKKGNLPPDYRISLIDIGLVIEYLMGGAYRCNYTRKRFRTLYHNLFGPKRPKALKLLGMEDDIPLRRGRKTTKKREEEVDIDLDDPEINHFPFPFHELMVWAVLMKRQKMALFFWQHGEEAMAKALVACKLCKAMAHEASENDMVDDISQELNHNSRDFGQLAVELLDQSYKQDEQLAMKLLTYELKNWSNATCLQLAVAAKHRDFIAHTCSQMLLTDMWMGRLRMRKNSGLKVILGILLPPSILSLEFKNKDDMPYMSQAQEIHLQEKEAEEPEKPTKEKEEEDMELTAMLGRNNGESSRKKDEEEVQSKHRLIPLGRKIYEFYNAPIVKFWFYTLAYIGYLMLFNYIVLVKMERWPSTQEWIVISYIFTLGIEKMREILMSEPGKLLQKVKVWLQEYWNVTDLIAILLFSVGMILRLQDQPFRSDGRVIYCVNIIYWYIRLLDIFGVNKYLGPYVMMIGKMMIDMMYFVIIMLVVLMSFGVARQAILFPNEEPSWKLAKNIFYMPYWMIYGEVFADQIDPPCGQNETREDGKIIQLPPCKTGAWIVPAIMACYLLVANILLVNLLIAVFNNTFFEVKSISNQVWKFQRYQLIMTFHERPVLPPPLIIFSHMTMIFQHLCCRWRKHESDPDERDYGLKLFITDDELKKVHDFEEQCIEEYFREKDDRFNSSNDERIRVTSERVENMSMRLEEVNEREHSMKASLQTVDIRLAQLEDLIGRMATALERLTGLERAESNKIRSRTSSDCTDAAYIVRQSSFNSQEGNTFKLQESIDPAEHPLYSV
Assay: Fura-2-based calcium imaging, HEK293T cells transfected with WT hTRPM3
Type: cell-based
Method: HEK293T cells ([Graham et al., 1977]) were cultured as described previously ([Vriens et al., 2007]) and used up in passage number 14. HEK293T cells were tested for the lack of mycoplasma and transiently transfected with 2 µg of DNA using TransIT transfection reagent (Mirus) 36–48 hr before the measurements. In case of co-cultures a ratio of 1:1 between hTRPM3-YFP WT and mutants-YFP DNA was used.
Changes in intracellular calcium concentration were monitored using ratiometric Fura-2-based fluorimetry. Cells were loaded with 2 µM Fura-2-acetoxymethyl ester (Alexis Biochemicals) for 30 min at 37°C. Fluorescence was measured during alternating illumination at 340 and 380 nm using Eclipse Ti (Nikon) fluorescence microscopy system, and absolute calcium concentration was calculated from the ratio of the fluorescence signals at these two wavelengths (R = F340/F380) as [Ca^2+]=Km × (R-Rmin)/(Rmax-R), where Km, Rmin and Rmax were estimated from in vitro calibration experiments with known calcium concentrations. The bath solution contained (in mM) 138 NaCl, 5.4 KCl, 2 CaCl2, 2 MgCl2, 10 glucose, and 10 HEPES, pH 7.4. […] The chemical ligands were dissolved in bath solution from a stock diluted in DMSO.

Row | Molecule | Effect on basal [Ca2+]i (primidone 100 µM, isosakuranetin 50 µM) | PS concentration required to induce a detectable calcium response
1 | CCC1(c2ccccc2)C(=O)NCNC1=O [primidone] | reduced [Ca^2+]i | –
2 | pregnenolone sulfate [PS] | – | 10 µM
